Laboratory results taken from patent publication US20250346588A1, “IMIDAZOPYRIDINE AND OXAZOLOPYRIDINE DERIVATIVES AND ANALOGS THEREOF, METHODS OF PREPARATION THEREOF, METHODS OF HIF-1/2A PATHWAY INHIBITION, AND INDUCTION OF FERROPTOSIS” (KUDA THERAPEUTICS, INC., priority 2022, published 2025).
Like-named read-outs stand apart in the source and are kept apart here.

Experiments:
[1] = system: HIF-2α transcriptional activity; assay: Hypoxia-responsive element-driven luciferase (HRE-Luc) screen; format: cell-based, human; conditions: Homo sapiens, 786-0, 24 h, 786-0 ccRCC cells stably expressing HRE-Luc; 24 h treatment; range of IC50 values
Experimental: (§1) Screens for inhibitory activity of compounds described herein were performed using 786-0 ccRCC cells that stably express HRE-Luc: 5 copies of the hypoxia-responsive element (HRE) fused to the pGL3 luciferase reporter (Promega Corp, Madison WI). 786-0 cells are pVHL deficient and thus constitutively express HIF-2α independently of cellular oxygen tension. Since 786-0 cells lack HIF-1α, HRE-driven luciferase activity is primarily HIF-2α driven, and has been previously validated. Cells were maintained at log phase growth in […] (DMEM) with 10% FBS in a humidified incubator at 37° C. with 5% CO2. For screening assays, cells were seeded at a density of 4,000 cells in 50 μl of complete media/well in quadruplicate wells/point in a 96-well plate. After 24 h, 50 μl of a 2× concentration of test compound was added to each well. Compounds were diluted from a 5-10 mM stock in DMSO and final concentrations of DMSO in each well in controls and treated wells were kept constant at ≤0.6% DMSO. After 24 h treatment, luciferase activity was measured using the Steady-Glo Luciferase assay system (Promega Corp) according to the manufacturer's protocol. Cell viability was measured in quadruplicate parallel wells using resazurin as recommended by the manufacturer (R&D systems, Minneapolis, MN). Data for luciferase and resazurin were normalized to DMSO treated controls (defining 100%) and wells containing assay reagent but no cells (defining 0%) and graphed using the log inhibitor versus normalized response option in Graphpad Prism 9.3.1 software. Representative data determined using Steady-Glo luciferase and resazurin are shown in FIGS. 1A and 1B respectively, with error bars showing SD. Filled diamonds, empty squares and empty triangles indicate treatment with 3, 8 and 22 respectively with results for HRE-Luc shown in FIG. 1A.

ISCA2 = target: T1, ISCA2 (Homo sapiens, UniProt Q86U28); assay: Thermal shift assay with recombinant ISCA2 (SYPRO Orange); format: binding
T1 construct: His6 (N); made in house; host or cells: E. coli Rosetta (DE3)
T1 sequence (Q86U28 9-154): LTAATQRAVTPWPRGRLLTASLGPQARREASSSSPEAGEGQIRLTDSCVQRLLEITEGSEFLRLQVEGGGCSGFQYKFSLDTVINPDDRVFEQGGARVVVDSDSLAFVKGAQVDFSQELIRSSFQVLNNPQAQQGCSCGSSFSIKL
Experimental: Thermal shift assays were performed by monitoring the change in protein melting temperature (Tm) in the absence or presence of test compounds, using the hydrophobic protein binding dye, SYPRO Orange (S6650, Thermo Fisher Scientific), measured using the LightCycler 480 (Roche Life Sciences, Indianapolis, IN) according to the manufacturer's protocol. Recombinant ISCA2 was produced by expressing amino acid residues 9-154 of ISCA2 (ISCA2 lacking its mitochondrial localization sequence) in the pET28 vector containing an N-terminal His6 tag in Rosetta (DE3) competent cells (Novagen, Millipore Sigma). ISCA2 production was induced by treating ISCA2 transformed log phase cells with 0.25 mM IPTG for 4 hours at 18° C. ISCA2 was purified using Ni^2+ affinity purification according to standard protocols and eluted in 50 mM Tris-C1 pH7.4, 150 mM NaCl, 5 mM DTT. Thermal shift assays were performed in 384-well plates using 1 μl of a 10× concentration of SYPRO Orange, 8 μl of ISCA2 (4 μg protein) and 1 μl of 1-2 mM stock of test compound per well. The LightCycler was used according to the following setup: LightCycler 480 Instrument Temperature Setup: First target of 20° C., with a Hold of 15 seconds; second target of 95° C., with Acquisition Mode of Continuous, and 10 acquisitions per degree c.; and third target of 20° C., with a Hold of 15 seconds. Tms were determined using Roche Protein Melting Analysis Software. Representative data are shown in FIGS. 6 and 7 using compound 1 and 26HCL at 200 and 100 µM final concentration respectively. […] These findings are supported by studies showing that re-expression of VHL (which increases ISCA2) and overexpression of ISCA2 itself, promotes the resistance of cells to the compounds (shown in FIG. 8).

HIF-1α and HIF-2α = assay: Western blots for HIF-1α and HIF-2α in ccRCC cells; format: cell-based, human; conditions: 786-0 or RCC10 ccRCC cells, 24h, relative to GAPDH
Experimental: (§2) Western blots were performed to determine the effects of the compounds on levels of HIF-2α and other relevant proteins, whereas qPCR was performed to determine the effects of compounds on transcript levels of HIF target genes. 786-0 or RCC10 cells were plated at 1×10E5 cells/well in 2 ml DMEM with 10% FBS/well in 6-well tissue culture plates. Cells were allowed to adhere overnight in a humidified incubator at 37° C. with 5% CO2, after which the appropriate concentrations of compounds in DMSO were added. DMSO concentrations were kept constant in all wells. After 24 h exposure to the compounds, cells were lysed and subjected to western blotting according to standard protocols. Antibodies for HIF-1α and HIF-2α and GAPDH were purchased from Cell Signaling Technology (Danvers, MA), whereas antibodies to IRP2 and pVHL were from Santa Cruz Biotechnology (Dallas, TX), and GPX4 antibody was from R&D Systems, Inc (Minneapolis, MN). Representative data in FIG. 2 show a dose-dependent effect of compounds in decreasing HIF-1/2α. Compounds also impact cellular iron sensing given by increased IRP2, which taken together indicate that cells sense decreased amounts of available iron, which triggers the iron starvation response initiated by IRP2 stabilization. Representative data shown in FIG. 3D show a dose dependent effect of the compounds on GPX4, which may indicate decreased resistance to ferroptosis. […] The data also show increased expression of ISCA2 with pVHL re-expression.

IRP2 and GPX4 = assay: Western blots for cellular iron-sensing machinery (IRP2, GPX4); format: cell-based, human; conditions: 786-0 or RCC10 ccRCC cells, 24h, relative to GAPDH
Experimental: as §2

786-0 cells [2] = assay: Resazurin cell viability assay, with or without DFO and other inhibitors; format: cell-based, human; conditions: for IC50: Homo sapiens, 24 h, resazurin
Experimental: as §1
In view of the increased cellular iron concentrations induced by the compounds described herein, the involvement of iron in mediating cell death was determined. Cell viability assays were performed as described in Example 2 using resazurin as a cell viability readout and performed in the absence or presence of 100 μM of the iron chelator, DFO (D9533, MilliporeSigma, St Louis, MO). […] Viability IC50 values are shown in brackets.

786-0 ccRCC cells = assay: ICP-MS of cellular iron, zinc and copper; format: cell-based, human; conditions: 786-0 cells, 24h
Experimental: These studies were performed to determine the content of iron and other transition metals in cells after exposure the compounds described herein. 786-0 cells were seeded at 1.5 million cells/flask in T75 cm^2 flasks in DMEM+10% FBS, and allowed to adhere overnight. Cells were then treated with indicated concentrations of compounds in DMSO or DMSO alone (vehicle) for a further 24 h, after which cells were detached by trypsinization, counted, washed twice in phosphate-buffered saline (PBS) and pelleted. Experiments were performed using three replicate T75 cm^2 flasks per condition. A 5:1 mixture of nitric acid (OPTIMA Grade, 70%, Fisher Scientific) and ultrapure hydrogen peroxide (ULTREX II, 30%, Fisher Scientific) was added to cell pellets. This mixture was allowed to digest overnight, heated until dry, and resuspended in 2% nitric acid for analysis using an Agilent 7900 ICP-MS (Agilent Technologies, Santa Clara, CA). Calibration standard solutions for determination of Fe were prepared from Agilent multi-element calibration standard-2A. An Agilent Environmental Calibration Standard was used as an independent control. PBS-only control digestions were used to measure background. Metal readings were normalized to cell number. Data obtained from these studies for three replicate readings (with SEM) are shown in FIG. 3, which show an increase in cellular iron (Fe) content after treatment with indicated compounds.

Bioavailability studies = format: in vivo; conditions: Swiss albino mice, at a 100 mg/kg dose
[3] = system: HIF-2α Iron-Responsive Element (IRE); assay: HIF-2α IRE-Luc reporter assay; format: cell-based, human; conditions: 786-0 cells stably expressing HIF-2α IRE-Luc, 24h
Experimental: as §1, with “Compounds were diluted from a 5-10 mM stock in DMSO and final concentrations of DMSO in each well in controls and treated wells were kept constant at ≤0.6% DMSO.” left out, “Data for luciferase and resazurin were normalized to DMSO treated controls (defining 100%) and wells containing assay reagent but no cells (defining 0%) and graphed using the log inhibitor versus normalized response option in Graphpad Prism 9.3.1 software.” left out, “Filled diamonds, empty squares and empty triangles indicate treatment with 3, 8 and 22 respectively with results for HRE-Luc shown in FIG. 1A.” left out

786-0 cells [4] = assay: TBARS assay of lipid peroxidation (MDA); format: cell-based, human; conditions: 48h treatment
Experimental: Malondialdehyde (MDA) is an end product of lipid peroxidation products and can be used to indicate lipid peroxidation, which is a hallmark of ferroptosis. MDA adducts were quantitated in cells and tumor tissue using the TBARS-TCA Method kit (Cat 700870, Cayman Chemicals, Ann Arbour Michigan) according to the manufacturer's protocol. Briefly, 786-0 cells were seeded at 1.75×10E6 cells in T75 cm^2 flasks, allowed to adhere overnight in a humidified incubator at 37° C. with 5% CO2, then treated with test compounds for 48 h, RSL3 (as positive control for 6h) or DMSO control (volume of DMSO kept constant for all flasks). Cells were detached by trypsinization, pelleted by centrifugation, washed in PBS twice, resuspended in 200 μL PBS, then sonicated for 3 minutes in a sonicating water bath. Representative data showing effects of 26HCL or 62TFA in comparison to RSL3, a classical ferroptosis inducer, is shown in FIG. 5. For MDA quantitation in tumor chunks, 20-50 mg of tumor tissue was homogenized in 200-500 μL of PBS, then sonicated for 5 minutes in a sonicating water bath. The cell or tumor lysates were subjected to the colorimetric detection methods described in manufacturer's protocol. MDA concentration of cells was determined in comparison to a standard curve of MDA stock solution provided by the manufacturer. Data was plotted using Prism GraphPad 9.3.1 Software. […]

RENCA syngeneic tumors = assay: RENCA syngeneic tumor model, immunohistochemistry of tumors; format: in vivo; conditions: Balb/c mice, once daily oral dosing, 14 days
Experimental: A similar study was performed using RENCA cells, which are derived from a renal tumor that arose spontaneously in a male Balb/c mouse. RENCA cells were purchased from ATCC and 2 million cells were implanted into the flanks of Balb/c mice. Once tumors attained an average size of approximately 75-100 mm^3, mice were stratified into two groups and animals treated with either vehicle or 70 mg/kg 26HCL once daily PO. Mouse tumor volumes were measured three times a week until tumors reached approximately 3000 mm^3, or mice required euthanasia. […] FIG. 10B through 10D show western blot quantitation and MDA quantitation by TBARs assay, as performed for the 786-0 xenografts.
Similar studies were performed using 786-0 and RENCA tumor models treated with 62TFA. […] Immunohistochemistry was performed using standard techniques using CD8 (CST98941) and CD31 (CST77699) purchased from Cell Signaling Technologies.

[5] = system: RCC4 or 786-0 cells±pVHL re-expression; assay: Cell viability with pVHL re-expression; format: cell-based, human; conditions: 48h

| SMILES | IC50 [1] | Tm of ISCA2 in compound-treated wells (ISCA2; 200 μM compound, control wells 53.21±0.36) | change in melting temperature of ISCA2 (in words) (ISCA2; compound 1 and 26HCL at 200 and 100 μM final concentration respectively) | effect on HIF-1α and HIF-2α protein (Western blot) (HIF-1α and HIF-2α) | effect on IRP2 protein (Western blot) (IRP2 and GPX4) | effect of DFO co-treatment on compound-mediated loss of cell viability (786-0 cells [2]; DFO 100 μM, FIG. 4B) | cellular iron (Fe), zinc (Zn) and copper (Cu) content (786-0 ccRCC cells) | IC50 (786-0 cells [2]; compound alone, read-out: cell viability IC50) | IC50 (786-0 cells [2]; with DFO 100 μM, read-out: cell viability IC50 in the presence of DFO) | half-life (Bioavailability studies) | Bioavailability F (Bioavailability studies; oral) | effect on IRE-luciferase reporter activity normalized to resazurin [3] | lipid peroxidation (MDA-TBA adducts) (786-0 cells [4]) | CD8 cytotoxic T-cell infiltration (immunohistochemistry of tumors) (RENCA syngeneic tumors) | angiogenesis (CD31 immunohistochemistry of tumors) (RENCA syngeneic tumors) | effect of pVHL re-expression on cell viability response to compound [5] |
| --- | --- | --- | --- | --- | --- | --- | --- | --- | --- | --- | --- | --- | --- | --- | --- | --- |
| COc1cccc2sc(Nc3nnc(-c4ccc(F)cc4)o3)nc12 [Compound 1, 5-(4-fluorophenyl)-N-(4-methoxybenzo[d]thiazol-2-yl)-1,3,4-oxadiazol-2-amine] | < 10 µM | 55.63±0.26 °C | significant change in melting temperature of ISCA2 | decreases HIF-1α and HIF-2α | increases IRP2 |  |  |  |  |  |  |  |  |  |  |  |
| COc1nccc2[nH]c(Nc3nnc(-c4ccc(F)cc4)o3)nc12 [Compound 3, 5-(4-Fluorophenyl)-N-(4-methoxy-1H-imidazo[4,5-c]pyridin-2-yl)-1,3,4-oxadiazol-2-amine] | < 10 µM |  |  | decreases HIF-1α and HIF-2α | increases IRP2 | protective effects of DFO | increases the content of iron, zinc and copper in cells |  |  |  |  |  |  |  |  |  |
| COc1ccc(-c2nnc(Nc3nc4c(OC)nccc4[nH]3)o2)cc1 [Compound 22, N-(4-methoxy-1H-imidazo[4,5-c]73yridine-2-yl)-5-(4-methoxyphenyl)-1,3,4-oxadiazol-2-amine] | < 10 µM |  |  |  |  |  | increases the content of iron, zinc and copper in cells | 11.4 µM | 83.6 µM |  |  |  |  |  |  |  |
| COc1nccc2[nH]c(Nc3nnc([C@H]4CC[C@@H](OC)CC4)o3)nc12 [Compound 62TFA, N-(4-methoxy-1H-imidazo[4,5-c]pyridin-2-yl)-5-((1s,4s)-4-methoxycyclohexyl)-1,3,4-oxadiazol-2-amine] |  |  |  | decreases HIF-1α and HIF-2α | increases IRP2 |  |  |  |  | 7 h | 55% | decrease IRE-mediated translation of HIF-2α | induce lipid peroxidation to an extent comparable to the ferroptosis inducer RSL3 | increases CD8-T cell infiltration | markedly decreases angiogenesis | re-expression of pVHL promotes resistance |
